Active and inactive are the calls of the source.
System: not listed separately
Assay: C. albicans growth with fluconazole, confirmation, fluorescence, retest (AID 2467)
Type: functional, cell-based
Conditions: not given
For `Cc1nn(-c2ccccc2)c(N)c1N=Nc1ccc(Cl)cc1`, the EC50 was 5.82 µM (active).

System: SN12K1
Assay: cells
Type: functional
Conditions: Homo sapiens
With `NC(CSC(c1ccccc1)(c1ccccc1)c1ccccc1)C(=O)O` (stereo not drawn) the GI50 was 0.352 µM (active).
With `NS(=O)(=O)OCCCCCCCOS(N)(=O)=O` the GI50 was 273 µM (inactive).
In the case of `O=P(NCCCO)(OCc1ccccc1)N(CCCl)CCCl` (stereo not drawn), the GI50 was > 100 µM (inactive).
With `CN1CCC23c4ccccc4NC1C21CCN(C)C3Nc2ccccc21` the GI50 was 202 µM (inactive).
For `N=C(N)SCc1cccc([N+](=O)[O-])c1`, the GI50 was 32.7 µM (inactive).
With `CC(=O)Oc1cc2c(cc1OC(C)=O)OCC(c1ccc(C)cc1)C2` (stereo not drawn) the GI50 was 14 µM (inactive).
For `c1cc2c3c(c1)c1cc4c(cc1c[n+]3CC2)OCO4` [ANHYDROLYCORINIUM CHLORIDE], the GI50 was 1.95 µM (inactive).

System: not listed separately
Assay: inhibitors of intracellular T. cruzi replication, confirmation, NIH3T3 host cells, beta-gal luminescence (AID 2044);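 also: intracellular parasites grown in NIH/3T3 mouse fibroblasts as host cells; luminescent beta-galactosidase reporter signal from transgenic T. cruzi replicating inside host cells; inhibitors lower the luminescence signal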
Type: functional, cell-based
Conditions: not given
In the case of `Fc1cccc(Cc2noc(CN3CCC(c4ccncc4)CC3)n2)c1`, the EC50 was 2.11 µM (active).

System: not listed separately
Assay: Luminescence Cell-Based Dose Retest to Confirm Inhibitors of Cancer Stem Cells. [Related pubchem assays (depositor defined):AID2717, AID2721]
Type: functional
Conditions: Homo sapiens
With `Cn1nc(-c2ccccc2F)c2cc(C(=O)Nc3ccc4c(c3)OCCO4)sc21` the AC50 was 3.48 µM (active).

System: not listed separately
Assay: HEp-2 cell cytotoxicity, dose response, cytotoxicity control for RSV inhibitor project, HTS (AID 2410)
Type: functional
Conditions: human respiratory syncytial virus
In the case of `Cn1nc(-c2ccccc2F)c2cc(C(=O)Nc3ccc4c(c3)OCCO4)sc21`, the CC50 was 26.9 µM (active).
In the case of `Cc1cc(C)cc(NC(=O)c2ccc(Cn3nc(C)c(Cl)c3C)o2)c1`, the CC50 was 23.5 µM (active).

System: not listed separately
Assay: microbe, parasite or virus in culture
Type: functional
Conditions: Mycobacterium tuberculosis
With `Cn1nc(-c2ccccc2F)c2cc(C(=O)Nc3ccc4c(c3)OCCO4)sc21` the CC50 was > 40 µM (active).
With `CC(C)(C)C(=O)/C(=C\c1cccc([N+](=O)[O-])c1)n1cncn1` the CC50 was 4.33 µM (active).
With `Cc1cc(C)cc(NC(=O)c2ccc(Cn3nc(C)c(Cl)c3C)o2)c1` the CC50 was > 40 µM (active).
For `Cc1nn(-c2ccccc2)c(N)c1N=Nc1ccc(Cl)cc1`, the CC50 was > 40 µM (active).
For `Cc1nc2ccccc2c2nc3ccccc3n12`, the CC50 was > 40 µM (active).

System: H9c2;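 also: confirmatory concentration-response retest of ultra-high-throughput screening hits for modulation of myocardial damage; cell death induced by hydrogen peroxide oxidative stress; compound pretreatment for 60 min then peroxide exposure for 2 h; potency is for protecting the cells against peroxide damage rather than for killing them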
Assay: cells
Type: functional, cell-based
Conditions: Rattus norvegicus, H9c2, Myocardium
In the case of `Cn1nc(-c2ccccc2F)c2cc(C(=O)Nc3ccc4c(c3)OCCO4)sc21`, the IC50 was > 79 µM (inactive).

Target: Glyceraldehyde-3-phosphate dehydrogenase (Homo sapiens, UniProt P04406)
Sequence (P04406 whole entry): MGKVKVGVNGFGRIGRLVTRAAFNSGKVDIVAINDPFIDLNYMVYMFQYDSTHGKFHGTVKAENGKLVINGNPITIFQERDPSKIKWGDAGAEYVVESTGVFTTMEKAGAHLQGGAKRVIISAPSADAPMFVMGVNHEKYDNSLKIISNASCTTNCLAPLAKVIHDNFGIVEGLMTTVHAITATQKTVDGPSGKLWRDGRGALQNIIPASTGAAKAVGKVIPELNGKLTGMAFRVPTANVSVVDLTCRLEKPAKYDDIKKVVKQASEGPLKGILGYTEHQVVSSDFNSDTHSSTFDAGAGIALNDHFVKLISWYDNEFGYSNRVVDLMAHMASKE
Assay: not given
Conditions: not given
In the case of `Cc1cc(NS(=O)(=O)c2ccc(NC(=O)C(F)(F)F)cc2)no1`, the IC50 was > 100 µM (not active).
In the case of `COc1cccc(N2C(=O)C(Cl)=C(N3CCN(CCO)CC3)C2=O)c1`, the IC50 was > 50 µM (inconclusive).
In the case of `CN(C)C1=C(Cl)C(=O)N(c2ccnc(Cl)c2)C1=O`, the IC50 was > 50 µM (inconclusive).
With `Cc1ccc(N2C(=O)C(Cl)=C(N3CCOCC3)C2=O)cc1` the IC50 was > 50 µM (inconclusive).

System: not listed separately
Assay: HepG2 cell cytotoxicity, dose response, cytotoxicity control for Shn3 inhibitor project, CellTiter-Glo, cherry-picked (AID 624134)
Type: functional, cell-based
Conditions: not given
In the case of `O=[N+]([O-])c1cccc(S(=O)(=O)NCc2ccncc2)c1`, the AC50 was 48.4 µM (active).

System: not listed separately
Assay: cytotoxicity toward NIH3T3 fibroblasts, dose response, counter-screen, cell-based, ATP luminescence, mouse fibroblasts (AID 2010);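 also: cells exposed to compound for about 90 hours before reading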
Type: functional
Conditions: not given
For `Fc1cccc(Cc2noc(CN3CCC(c4ccncc4)CC3)n2)c1`, the EC50 was > 60 µM (not active).

Target: T1, High affinity choline transporter 1 (Homo sapiens, UniProt Q9GZV3)
T1 sequence (Q9GZV3 whole entry): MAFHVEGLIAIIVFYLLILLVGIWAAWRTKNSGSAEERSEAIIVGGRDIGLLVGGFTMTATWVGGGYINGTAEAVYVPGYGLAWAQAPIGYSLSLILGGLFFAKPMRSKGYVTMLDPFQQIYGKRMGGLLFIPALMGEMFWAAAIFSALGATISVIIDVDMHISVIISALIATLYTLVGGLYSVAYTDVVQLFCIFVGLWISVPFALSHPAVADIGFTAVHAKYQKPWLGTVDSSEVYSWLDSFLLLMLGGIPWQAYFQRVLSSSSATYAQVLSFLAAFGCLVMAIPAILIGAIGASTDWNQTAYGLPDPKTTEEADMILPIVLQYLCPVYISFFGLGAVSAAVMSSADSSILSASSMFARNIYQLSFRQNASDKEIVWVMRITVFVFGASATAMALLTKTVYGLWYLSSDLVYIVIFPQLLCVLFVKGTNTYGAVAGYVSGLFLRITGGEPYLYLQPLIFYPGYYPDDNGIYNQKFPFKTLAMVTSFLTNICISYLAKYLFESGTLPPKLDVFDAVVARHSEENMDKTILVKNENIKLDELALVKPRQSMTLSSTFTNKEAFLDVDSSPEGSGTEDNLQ
Assay: CHT inhibitors, dose response, cell-based, 5-point CRC, membrane potential dye (AID 504840)
Type: functional
Conditions: not given
With `Fc1cccc(Cc2noc(CN3CCC(c4ccncc4)CC3)n2)c1` the IC50 was 14.5 µM (active).
In the case of `O=C(c1ccc(Cl)c(S(=O)(=O)N2CCCC2)c1)N1CCN(c2ccccc2)CC1`, the IC50 was 6.61 µM (active).
With `CCOC(=O)c1cnc2c(C)cc(Cl)cc2c1N1CCN(C)CC1` the IC50 was 11.5 µM (active).
For `CC(C)n1c(O)c(N=NC(=O)Cc2csc(N3CCOCC3)n2)c2ccccc21`, the IC50 was 13.5 µM (active).

System: P388/ADR
Assay: cells
Type: functional
Conditions: Mus musculus
For `NC(CSC(c1ccccc1)(c1ccccc1)c1ccccc1)C(=O)O` (stereo not drawn), the GI50 was 5.43 µM (inactive).
For `NS(=O)(=O)OCCCCCCCOS(N)(=O)=O`, the GI50 was > 83 µM (inactive).
With `O=P(NCCCO)(OCc1ccccc1)N(CCCl)CCCl` (stereo not drawn) the GI50 was > 100 µM (inactive).
For `CN1CCC23c4ccccc4NC1C21CCN(C)C3Nc2ccccc21`, the GI50 was > 254 µM (inactive).
In the case of `N=C(N)SCc1cccc([N+](=O)[O-])c1`, the GI50 was 15.7 µM (inactive).
With `CC(=O)Oc1cc2c(cc1OC(C)=O)OCC(c1ccc(C)cc1)C2` (stereo not drawn) the GI50 was 3.05 µM (inactive).
For `c1cc2c3c(c1)c1cc4c(cc1c[n+]3CC2)OCO4` [ANHYDROLYCORINIUM CHLORIDE], the GI50 was 22 µM (inactive).

System: not listed separately
Assay: Shn3 3'UTR reporter inhibitors, dose response, cell-based, Clone20 osteoblasts, firefly luciferase, cherry-picked (AID 624132);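 also: firefly luciferase luminescence from reporter carrying the Shn3 3'UTR in osteoblasts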
Type: functional
Conditions: not given
With `O=[N+]([O-])c1cccc(S(=O)(=O)NCc2ccncc2)c1` the AC50 was 3.09 µM (active).

System: P388
Assay: cells
Type: functional
Conditions: Mus musculus
With `NC(CSC(c1ccccc1)(c1ccccc1)c1ccccc1)C(=O)O` (stereo not drawn) the GI50 was 0.494 µM (active).
In the case of `NS(=O)(=O)OCCCCCCCOS(N)(=O)=O`, the GI50 was 35.1 µM (inactive).
In the case of `O=P(NCCCO)(OCc1ccccc1)N(CCCl)CCCl` (stereo not drawn), the GI50 was > 100 µM (inactive).
For `CN1CCC23c4ccccc4NC1C21CCN(C)C3Nc2ccccc21`, the GI50 was 57.7 µM (inactive).
For `N=C(N)SCc1cccc([N+](=O)[O-])c1`, the GI50 was 15.5 µM (inactive).
With `CC(=O)Oc1cc2c(cc1OC(C)=O)OCC(c1ccc(C)cc1)C2` (stereo not drawn) the GI50 was 2.87 µM (inactive).
With `c1cc2c3c(c1)c1cc4c(cc1c[n+]3CC2)OCO4` [ANHYDROLYCORINIUM CHLORIDE] the GI50 was 0.515 µM (active).

Target: Paired box protein Pax-8 (Homo sapiens, UniProt Q06710)
Sequence (Q06710 whole entry): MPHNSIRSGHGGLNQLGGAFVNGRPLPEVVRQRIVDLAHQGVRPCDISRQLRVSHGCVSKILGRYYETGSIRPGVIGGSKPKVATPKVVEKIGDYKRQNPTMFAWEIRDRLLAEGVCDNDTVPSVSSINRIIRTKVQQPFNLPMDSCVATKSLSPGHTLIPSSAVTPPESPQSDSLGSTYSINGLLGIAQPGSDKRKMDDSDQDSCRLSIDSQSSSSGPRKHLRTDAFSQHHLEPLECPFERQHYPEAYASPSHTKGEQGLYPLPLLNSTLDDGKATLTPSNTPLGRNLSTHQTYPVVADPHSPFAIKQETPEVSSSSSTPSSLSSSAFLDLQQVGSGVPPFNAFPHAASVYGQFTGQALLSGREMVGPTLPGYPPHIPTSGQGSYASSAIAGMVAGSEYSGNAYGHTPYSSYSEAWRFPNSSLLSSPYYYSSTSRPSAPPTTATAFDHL
Assay: inhibitors of PAX8-driven TPO luciferase reporter, dose response, RMG-I cells, cherry-pick (AID 687027);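 also: luciferase reporter driven by Pax8 target thyroperoxidase promoter measured by SteadyGlo luminescence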
Type: functional, cell-based
Conditions: not given
For `CCO[C@H]1OC(C(=O)N2CCN(Cc3ccccc3)CC2)=C[C@@H](c2ccc(C(F)(F)F)cc2)[C@@H]1CCCO`, the AC50 was 14.3 µM (active).
For `CCCC#Cc1ccc([C@@H]2[C@H]3CN(S(=O)(=O)c4ccccc4F)CCCCN3[C@H]2CO)cc1`, the AC50 was 22.4 µM (active).
With `COc1cccc(-c2ccc3c(c2)[C@@H]2[C@@H](CCN2C(=O)NC2CCCCC2)[C@H](CO)N3C)c1` the AC50 was 10.9 µM (active).
For `O=C(C[C@@H]1C[C@H]2c3cc(NC(=O)C4CCOCC4)ccc3O[C@H]2[C@H](CO)O1)NCc1ccc(Oc2ccccc2)cc1`, the AC50 was 34.3 µM (active).

System: not listed separately
Assay: NIH-3T3 fibroblast cytotoxicity, dose response, cytotoxicity control, cell-based, fluorescence, Alamar Blue, secondary assay (AID 2327);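 also: NIH-3T3 mouse fibroblasts cultured with fluconazole at 8 µg/mL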
Type: functional
Conditions: not given
For `Cc1nn(-c2ccccc2)c(N)c1N=Nc1ccc(Cl)cc1`, the EC50 was 22.8 µM (inconclusive).
